Assay results as given in patent US7652057B2, “Pyrazolones as 11b-HSD1 inhibitors for diabetes” (Hoffman-La Roche Inc., priority 2005, dated 2010).

Biological target: T1, human 11beta-HSD1 (Homo sapiens, UniProt P28845)
T1 construct: made in house; host or cells: HEK293 cells (ATCC CRL-1573), transient transfection with a pcDNA3 construct; microsomal fraction
Assay: Microsome assay (cortisone to cortisol conversion, ELISA)
Type: biochemical
Settings: microsomes from HEK293 cells transiently expressing human 11beta-HSD1; Cortisone 50-200 nM, NADPH 1 mM, 60 min at 37° C.; read-out: h 11-beta-HSD 1 IC50
Method: The cDNA encoding the human 11beta-HSD1 protein was cloned into the expression vector pcDNA3 ([…]). This construct (for details see Alex Odermatt et al.; J Biol Chem., 1999, Vol. 274, Issue 40, 28762-28770) was used to transiently express the protein in HEK293 cells (ATCC number: CRL-1573, described in Graham, F. L., Smiley, J., Russell, W. C., Nairn, R.; (1977)) using lipofectamine. 48 h after transfection cells were washed twice with ice-cold PBS (Phosphate buffered Saline). To 1 volume of cell suspension in PBS 2 volumes of ice-cold lysis buffer (50 mM Tris; pH7.5; 1 mM EDTA; 100 mM NaCl) were added. The cells were lysed by Potter-homogenization (20 strokes). The resulting homogenate was sonicated wit a tip sonicator (10% output; 2×30 sec.) and cleared by a low speed centrifugation (10 min×9000 g; 4° C.). The microsomal fraction was collected by a high speed centrifugation (60 min×110'000 g). […]
Microsomes isolated from HEK293 cells transiently expressing human 11beta-HSD1 (for details see above) were incubated in assay buffer (100 mM NaCl; 1 mM EDTA; 1 mM EGTA; 1 mM MgCl; 250 mM Sucrose; 20 mM Tris pH 7.4; Cortisone 50-200 nM and NADPH 1 mM) together with different concentrations of test substances. […] The amount of Cortisol produced in this assay was determined using a commercially available, ELISA-based Cortisol-detection kit (Distributed by Assay Design, Inc.). […]

T1 sequence (P28845 whole entry): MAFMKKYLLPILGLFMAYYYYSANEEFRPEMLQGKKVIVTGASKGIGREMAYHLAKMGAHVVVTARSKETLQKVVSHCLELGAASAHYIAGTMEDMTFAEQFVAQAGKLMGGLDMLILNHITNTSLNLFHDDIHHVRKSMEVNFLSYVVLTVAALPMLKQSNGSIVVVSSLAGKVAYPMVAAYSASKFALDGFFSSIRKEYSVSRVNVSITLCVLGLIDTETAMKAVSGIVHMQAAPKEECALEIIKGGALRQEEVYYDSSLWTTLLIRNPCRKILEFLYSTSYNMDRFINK

Structure (SMILES)	IC50 [nM]
Cc1c(C23CC4CC(CC(C4)C2)C3)c(=O)n2n1CCCCC2 [Example 51, 2-adamantan-1-yl-3-methyl-6,7,8,9-tetrahydro-5H-pyrazolo[1,2-a][1,2]diazepin-1-one]	133
Cn1c(C2CC2)c(C2CC2)c(=O)n1-c1ccccc1 [Example 1, 4,5-Dicyclopropyl-1-methyl-2-phenyl-1,2-dihydro-pyrazol-3-one]	21
